{
  "source": "BigSolDB 2.1",
  "data": [
    {"smiles": "Brc1c(Br)c(Br)c(Oc2c(Br)c(Br)c(Br)c(Br)c2Br)c(Br)c1Br", "values": [
      {"measurement": "solubility (mole fraction)", "setting": "in THF, 283 K", "value": 0.00449},
      {"measurement": "solubility (mole fraction)", "setting": "in THF, 293 K", "value": 0.00524},
      {"measurement": "solubility (mole fraction)", "setting": "in THF, 303 K", "value": 0.00607},
      {"measurement": "solubility (mole fraction)", "setting": "in THF, 313 K", "value": 0.00695},
      {"measurement": "solubility (mole fraction)", "setting": "in THF, 323 K", "value": 0.0085},
      {"measurement": "solubility (mole fraction)", "setting": "in acetone, 283 K", "value": "4.4e-05"},
      {"measurement": "solubility (mole fraction)", "setting": "in acetone, 293 K", "value": "6e-05"},
      {"measurement": "solubility (mole fraction)", "setting": "in acetone, 303 K", "value": "9.1e-05"},
      {"measurement": "solubility (mole fraction)", "setting": "in acetone, 313 K", "value": 0.000119},
      {"measurement": "solubility (mole fraction)", "setting": "in acetone, 323 K", "value": 0.000145},
      {"measurement": "solubility (mole fraction)", "setting": "in ethyl acetate, 283 K", "value": 0.000133},
      {"measurement": "solubility (mole fraction)", "setting": "in ethyl acetate, 293 K", "value": 0.000173},
      {"measurement": "solubility (mole fraction)", "setting": "in ethyl acetate, 303 K", "value": 0.000252},
      {"measurement": "solubility (mole fraction)", "setting": "in ethyl acetate, 313 K", "value": 0.000346},
      {"measurement": "solubility (mole fraction)", "setting": "in ethyl acetate, 323 K", "value": 0.000455},
      {"measurement": "solubility (mole fraction)", "setting": "in limonene, 283 K", "value": 0.00162},
      {"measurement": "solubility (mole fraction)", "setting": "in limonene, 293 K", "value": 0.00242},
      {"measurement": "solubility (mole fraction)", "setting": "in limonene, 303 K", "value": 0.00282},
      {"measurement": "solubility (mole fraction)", "setting": "in limonene, 313 K", "value": 0.00397},
      {"measurement": "solubility (mole fraction)", "setting": "in limonene, 323 K", "value": 0.00485},
      {"measurement": "solubility (mole fraction)", "setting": "in toluene, 283 K", "value": 0.00274},
      {"measurement": "solubility (mole fraction)", "setting": "in toluene, 293 K", "value": 0.00362},
      {"measurement": "solubility (mole fraction)", "setting": "in toluene, 303 K", "value": 0.0052},
      {"measurement": "solubility (mole fraction)", "setting": "in toluene, 313 K", "value": 0.00651},
      {"measurement": "solubility (mole fraction)", "setting": "in toluene, 323 K", "value": 0.00771}
    ]}
  ]
}
